From US10208040B2, “Fused imidazo-piperidine JAK inhibitors” (THERAVANCE BIOPHARMA R&D IP, LLC, priority 2017, dated 2019)

Columns and labels:
JAK1 = JAK1 (Homo sapiens (Human), UniProt P23458); test: Biochemical JAK kinase assay (LanthaScreen), JAK1
Procedure: (§1) A panel of four LanthaScreen JAK biochemical assays (JAK1, 2, 3 and Tyk2) were carried in a common kinase reaction buffer (50 mM HEPES, pH 7.5, 0.01% Brij-35, 10 mM MgCl2, and 1 mM EGTA). Recombinant GST-tagged JAK enzymes and a GFP-tagged STAT1 peptide substrate were obtained from Life Technologies.
(§2) Serially diluted compounds were pre-incubated with each of the four JAK enzymes and the substrate in white 384-well microplates (Corning) at ambient temperature for 1 h. ATP was subsequently added to initiate the kinase reactions in 10 μL total volume, with 1% DMSO. […] The plates were allowed to incubate at ambient temperature for 1 h before being read on the EnVision reader (Perkin Elmer).
(§3) For dose-response analysis, percent inhibition data were plotted vs. compound concentrations, and IC50 values were determined from a 4-parameter robust fit model with the Prism software (GraphPad Software). Results were expressed as pIC50 (negative logarithm of IC50) and subsequently converted to pKi (negative logarithm of dissociation constant, Ki) using the Cheng-Prusoff equation.

JAK2 = JAK2 (Homo sapiens (Human), UniProt O60674); test: Biochemical JAK kinase assay (LanthaScreen), JAK2
Sequence of JAK2 (O60674 whole entry): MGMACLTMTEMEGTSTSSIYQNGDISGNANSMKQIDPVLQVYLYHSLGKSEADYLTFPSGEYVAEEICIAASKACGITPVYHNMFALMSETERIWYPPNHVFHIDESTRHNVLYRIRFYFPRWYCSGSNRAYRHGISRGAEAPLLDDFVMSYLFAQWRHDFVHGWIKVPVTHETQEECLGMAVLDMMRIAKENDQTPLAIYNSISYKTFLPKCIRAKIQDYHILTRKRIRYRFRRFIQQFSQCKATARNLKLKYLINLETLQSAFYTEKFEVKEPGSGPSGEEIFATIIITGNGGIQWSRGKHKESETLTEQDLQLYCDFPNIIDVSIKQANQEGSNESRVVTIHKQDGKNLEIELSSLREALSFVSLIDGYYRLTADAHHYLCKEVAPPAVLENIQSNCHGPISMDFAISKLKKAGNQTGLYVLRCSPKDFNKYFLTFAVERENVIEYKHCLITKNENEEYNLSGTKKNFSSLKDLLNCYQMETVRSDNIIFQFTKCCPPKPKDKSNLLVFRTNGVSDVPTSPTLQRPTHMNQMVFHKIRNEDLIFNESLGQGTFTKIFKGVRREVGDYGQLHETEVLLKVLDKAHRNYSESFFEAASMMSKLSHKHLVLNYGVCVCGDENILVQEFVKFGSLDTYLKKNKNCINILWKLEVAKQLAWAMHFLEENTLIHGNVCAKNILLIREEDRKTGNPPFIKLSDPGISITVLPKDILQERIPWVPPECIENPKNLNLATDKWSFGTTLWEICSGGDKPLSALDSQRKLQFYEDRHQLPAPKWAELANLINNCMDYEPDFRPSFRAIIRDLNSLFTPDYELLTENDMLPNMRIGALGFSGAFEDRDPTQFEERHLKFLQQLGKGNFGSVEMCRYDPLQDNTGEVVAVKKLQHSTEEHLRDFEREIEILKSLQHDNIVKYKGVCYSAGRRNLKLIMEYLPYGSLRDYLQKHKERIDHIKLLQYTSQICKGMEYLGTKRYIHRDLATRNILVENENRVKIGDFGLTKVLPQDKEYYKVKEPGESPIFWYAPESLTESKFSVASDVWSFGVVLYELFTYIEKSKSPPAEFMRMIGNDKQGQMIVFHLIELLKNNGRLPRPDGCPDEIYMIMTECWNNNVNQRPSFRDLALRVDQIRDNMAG
Procedure: as §1, §2, §3

JAK3 = JAK3 (Homo sapiens (Human), UniProt P52333); test: Biochemical JAK kinase assay (LanthaScreen), JAK3
Sequence of JAK3 (P52333 whole entry): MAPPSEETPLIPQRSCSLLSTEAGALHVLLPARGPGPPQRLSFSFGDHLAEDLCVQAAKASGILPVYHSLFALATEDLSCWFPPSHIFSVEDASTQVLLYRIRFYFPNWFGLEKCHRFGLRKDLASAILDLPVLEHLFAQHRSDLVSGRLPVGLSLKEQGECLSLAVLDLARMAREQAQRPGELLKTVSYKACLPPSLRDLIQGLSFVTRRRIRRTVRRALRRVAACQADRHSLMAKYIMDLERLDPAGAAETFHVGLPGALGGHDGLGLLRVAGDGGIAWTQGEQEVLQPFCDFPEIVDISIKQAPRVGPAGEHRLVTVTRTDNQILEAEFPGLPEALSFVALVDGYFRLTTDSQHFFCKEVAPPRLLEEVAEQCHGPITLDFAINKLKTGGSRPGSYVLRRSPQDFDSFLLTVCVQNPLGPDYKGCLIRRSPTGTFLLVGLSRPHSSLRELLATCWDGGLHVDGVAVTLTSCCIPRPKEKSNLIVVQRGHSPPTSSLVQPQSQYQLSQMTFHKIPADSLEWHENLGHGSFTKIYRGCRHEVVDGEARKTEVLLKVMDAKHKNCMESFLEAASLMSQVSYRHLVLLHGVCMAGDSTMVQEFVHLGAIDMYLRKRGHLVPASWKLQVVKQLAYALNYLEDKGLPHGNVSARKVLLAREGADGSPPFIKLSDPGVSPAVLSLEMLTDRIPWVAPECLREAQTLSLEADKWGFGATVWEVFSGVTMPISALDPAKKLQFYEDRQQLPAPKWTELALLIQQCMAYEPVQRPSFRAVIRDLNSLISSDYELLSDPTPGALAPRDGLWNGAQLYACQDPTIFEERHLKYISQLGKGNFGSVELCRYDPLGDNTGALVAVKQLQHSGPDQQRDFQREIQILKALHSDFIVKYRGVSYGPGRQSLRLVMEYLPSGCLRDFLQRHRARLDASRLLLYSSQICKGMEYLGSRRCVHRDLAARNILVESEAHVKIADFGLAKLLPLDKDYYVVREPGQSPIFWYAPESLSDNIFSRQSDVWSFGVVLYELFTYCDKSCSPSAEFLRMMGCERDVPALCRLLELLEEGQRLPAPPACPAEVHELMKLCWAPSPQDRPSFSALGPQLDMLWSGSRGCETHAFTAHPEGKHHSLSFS
Procedure: as §1, §2, §3

Tyk2 = Tyk2 (Homo sapiens (Human), UniProt P29597); test: Biochemical JAK kinase assay (LanthaScreen), Tyk2
Sequence of Tyk2 (P29597 whole entry): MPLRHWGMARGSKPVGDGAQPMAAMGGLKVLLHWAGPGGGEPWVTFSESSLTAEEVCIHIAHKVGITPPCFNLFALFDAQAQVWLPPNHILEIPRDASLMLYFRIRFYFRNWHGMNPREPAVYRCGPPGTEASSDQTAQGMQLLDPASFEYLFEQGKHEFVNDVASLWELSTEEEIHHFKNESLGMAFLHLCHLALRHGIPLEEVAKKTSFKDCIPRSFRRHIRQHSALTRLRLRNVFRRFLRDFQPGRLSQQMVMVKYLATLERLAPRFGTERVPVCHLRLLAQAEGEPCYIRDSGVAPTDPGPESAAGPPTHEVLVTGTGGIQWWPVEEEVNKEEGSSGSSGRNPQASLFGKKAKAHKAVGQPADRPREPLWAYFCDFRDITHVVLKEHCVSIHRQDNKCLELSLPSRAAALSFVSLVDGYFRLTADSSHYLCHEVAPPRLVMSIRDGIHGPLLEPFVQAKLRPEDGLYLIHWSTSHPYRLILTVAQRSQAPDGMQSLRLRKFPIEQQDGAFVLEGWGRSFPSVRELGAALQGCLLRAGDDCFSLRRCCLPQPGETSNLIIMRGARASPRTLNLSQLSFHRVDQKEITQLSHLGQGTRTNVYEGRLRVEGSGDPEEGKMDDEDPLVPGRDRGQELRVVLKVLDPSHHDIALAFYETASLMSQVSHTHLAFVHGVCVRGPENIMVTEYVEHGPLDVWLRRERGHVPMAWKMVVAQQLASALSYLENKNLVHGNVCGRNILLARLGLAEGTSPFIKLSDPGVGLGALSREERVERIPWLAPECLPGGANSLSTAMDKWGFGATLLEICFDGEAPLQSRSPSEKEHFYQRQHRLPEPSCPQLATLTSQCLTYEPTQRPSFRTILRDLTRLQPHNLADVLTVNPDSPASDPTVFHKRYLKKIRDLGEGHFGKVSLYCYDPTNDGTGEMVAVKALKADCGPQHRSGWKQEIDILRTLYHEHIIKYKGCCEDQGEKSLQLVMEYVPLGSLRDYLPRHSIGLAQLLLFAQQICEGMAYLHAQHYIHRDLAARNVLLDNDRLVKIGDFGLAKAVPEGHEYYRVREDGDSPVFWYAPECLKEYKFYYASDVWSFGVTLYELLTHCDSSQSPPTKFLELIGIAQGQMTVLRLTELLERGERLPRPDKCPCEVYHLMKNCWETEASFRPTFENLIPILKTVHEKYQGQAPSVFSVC
Procedure: as §1, §2, §3

[1] = test system: IL-13 induced pSTAT6 in lung tissue; test: Murine model of IL-13 induced pSTAT6 induction in lung tissue; format: in vivo; conditions: mouse lung, oral aspiration 1 mg/mL 50 μL, IL-13 challenge 4 h post dose, pSTAT6 at 5 hours
Procedure: IL-13 is an important cytokine underlying the pathophysiology of asthma (Kudlacz et al. Eur. J. Pharmacol, 2008, 582, 154-161). IL-13 binds to cell surface receptors activating members of the Janus family of kinases (JAK) which then phosphorylate STAT6 and subsequently activates further transcription pathways. In the described model, a dose of IL-13 was delivered locally into the lungs of mice to induce the phosphorylation of STAT6 (pSTAT6) which is then measured as the endpoint.
Adult balb/c mice from Harlan were used in the assay. On the day of study, animals were lightly anesthetized with isoflurane and administered either vehicle or test compound (1 mg/mL, 50 μL total volume over several breaths) via oral aspiration. Animals were placed in lateral recumbency post dose and monitored for full recovery from anesthesia before being returned to their home cage. Four hours later, animals were once again briefly anesthetized and challenged with either vehicle or IL-13 (0.03 μg total dose delivered, 50 μL total volume) via oral aspiration before being monitored for recovery from anesthesia and returned to their home cage. One hour after vehicle or IL-13 administration, lungs were collected for both pSTAT6 detection using an anti-pSTAT6 ELISA (rabbit mAb capture/coating antibody; mouse mAb detection/report antibody: anti-pSTAT6-pY641; secondary antibody: anti-mouse IgG-HRP) and analyzed for total drug concentration as described above in Assay 3.
Selected compounds of the invention were tested in the assay. Activity in the model is evidenced by a decrease in the level of pSTAT6 present in the lungs of treated animals at 5 hours compared to the vehicle treated, IL-13 challenged control animals. The difference between the control animals which were vehicle-treated, IL-13 challenged and the control animals which were vehicle-treated, vehicle challenged dictated the 0% and 100% inhibitory effect, respectively, in any given experiment.

[2] = test system: IL-4 stimulated STAT6 phosphorylation in CD3+ T cells; test: Inhibition of IL-4 stimulated pSTAT6 in CD3+ T cells; format: cell-based; conditions: T-cell; CD3+ T cells in human PBMCs; read-out: pIC50 inhibition of IL-4 stimulated pSTAT6 (converted)
Procedure: The potency of the test compound for inhibition of interleukin-4 (IL-4) stimulated STAT6 phosphorylation was measured in CD3-positive (CD3+) T cells in human peripheral blood mononuclear cells (PBMCs) isolated from human whole blood (Stanford Blood Center) using flow cytometry. Because IL-4 signals through JAK, this assay provides a measure of JAK cellular potency.
CD3+ T cells were identified using a […] (PE) conjugated anti-CD3 antibody (Clone UCHT1, BD Biosciences), while an Alexa Fluor 647 conjugated anti-pSTAT6 antibody (pY641, Clone 18/P, BD Biosciences) was used to detect STAT6 phosphorylation.
Human peripheral blood mononuclear cells (PBMC) were isolated from human whole blood of healthy donors as in Assays 7 and 8. […] After incubation, cells were washed twice in FACS buffer before being analyzed using a LSRII flow cytometer (BD Biosciences).
To determine the inhibitory potency of the test compound in response to IL-4, the median fluorescent intensity (MFI) of pSTAT6 was measured in CD3+ T cells. IC50 values were determined from analysis of the inhibition curves of MFI vs compound concentration. Data are expressed as pIC50 (negative decadic logarithm IC50).

[3] = test system: IL-6 stimulated STAT3 phosphorylation in CD3+ T cells; test: Inhibition of IL-6 stimulated pSTAT3 in CD3+ T cells; format: cell-based, human; conditions: for IC50: T-cell, CD3+ T cells in human PBMCs, read-out: pIC50 inhibition of IL-6 stimulated pSTAT3 (converted)
Excerpt: A protocol analogous to that of Assay 9 was used to determine the potency of the test compound for inhibition of interleukin-6 (IL-6) stimulated STAT3 phosphorylation. An Alexa Fluor 647 conjugated anti-pSTAT3 antibody (pY705, Clone 4/P, BD Biosciences) was used to detect STAT3 phosphorylation.

Sequence of JAK1 (P23458 whole entry): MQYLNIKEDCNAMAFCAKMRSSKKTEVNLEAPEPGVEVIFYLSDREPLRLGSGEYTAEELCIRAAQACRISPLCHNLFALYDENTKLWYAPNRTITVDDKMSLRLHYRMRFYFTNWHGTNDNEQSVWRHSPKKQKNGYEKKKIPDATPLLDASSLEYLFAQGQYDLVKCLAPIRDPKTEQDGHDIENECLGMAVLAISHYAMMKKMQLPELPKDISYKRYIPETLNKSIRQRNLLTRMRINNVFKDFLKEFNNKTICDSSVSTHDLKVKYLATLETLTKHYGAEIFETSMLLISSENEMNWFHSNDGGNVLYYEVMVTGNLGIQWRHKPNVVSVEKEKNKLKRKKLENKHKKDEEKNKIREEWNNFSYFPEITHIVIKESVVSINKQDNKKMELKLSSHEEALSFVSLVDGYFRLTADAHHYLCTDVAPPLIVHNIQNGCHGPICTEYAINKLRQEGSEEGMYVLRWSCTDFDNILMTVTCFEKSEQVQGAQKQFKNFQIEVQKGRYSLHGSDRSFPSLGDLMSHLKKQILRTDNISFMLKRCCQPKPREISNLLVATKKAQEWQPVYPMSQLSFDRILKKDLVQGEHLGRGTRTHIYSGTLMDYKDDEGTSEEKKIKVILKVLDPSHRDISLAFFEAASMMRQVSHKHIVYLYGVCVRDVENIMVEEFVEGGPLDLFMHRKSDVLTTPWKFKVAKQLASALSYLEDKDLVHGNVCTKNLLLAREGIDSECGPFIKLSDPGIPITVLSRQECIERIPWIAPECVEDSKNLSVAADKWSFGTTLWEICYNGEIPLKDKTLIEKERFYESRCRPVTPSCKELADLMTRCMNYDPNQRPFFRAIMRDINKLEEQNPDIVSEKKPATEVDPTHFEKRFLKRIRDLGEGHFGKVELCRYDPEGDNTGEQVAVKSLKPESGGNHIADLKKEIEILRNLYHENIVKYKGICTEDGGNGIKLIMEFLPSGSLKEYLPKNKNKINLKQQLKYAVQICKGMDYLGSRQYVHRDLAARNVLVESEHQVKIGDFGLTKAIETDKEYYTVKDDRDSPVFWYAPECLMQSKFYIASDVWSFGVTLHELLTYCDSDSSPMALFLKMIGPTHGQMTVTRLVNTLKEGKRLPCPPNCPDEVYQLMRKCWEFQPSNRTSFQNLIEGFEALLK

SMILES | Ki (JAK1) [nM] | Ki (JAK2) [nM] | Ki (JAK3) [nM] | Ki (Tyk2) [nM] | pSTAT6 inhibition Assay 4 [1] | IC50 [2] [nM] | inhibition of IL-6 signaling (in words) [3] | IC50 [3] [nM]
CCCN1Cc2[nH]c(-c3n[nH]c4cc(-c5cc(F)c(O)cc5CC)ccc34)nc2C[C@H]1C(=O)N1C[C@@H]2C[C@H]1CN2C [Example 1, ((S)-2-(6-(2-ethyl-5-fluoro-4-hydroxyphenyl)-1H-indazol-3-yl)-5-propyl-4,5,6,7-tetrahydro-3H-imidazo[4,5-c]pyridin-6-yl)((1S,4S)-5-methyl-2,5-diazabicyclo-[2.2.1]heptan-2-yl)methanone] | 0.05 | 0.02 | 0.08 | 0.25 | A (A represents between 60% and 80% inhibition) | 20 | inhibit IL-6 signaling | 63.1
CCc1cc(O)c(F)cc1-c1ccc2c(-c3nc4c([nH]3)CN(CC)[C@@H](C(=O)N3CCN(C(C)(C)C)CC3)C4)n[nH]c2c1 [Example 1-37] | 0.1 | 0.04 | 0.5 | 1.26 | C (C represents between 25% and 40% inhibition) |  |  | 
CCc1cc(O)c(F)cc1-c1ccc2c(-c3nc4c([nH]3)CN(C(C)C)[C@H](C(=O)N3CC[C@H](N(C)C)C3)C4)n[nH]c2c1 [Example 3] | 0.06 | 0.02 | 0.1 | 0.4 | B (B represents between 40% and 60% inhibition) | 10 | inhibit IL-6 signaling | 39.8
